Data published in ChEMBL document CHEMBL5042526, “Design, Synthesis, and Biological Evaluation of Triazolone Derivatives as Potent PPARα/δ Dual Agonists for the Treatment of Nonalcoholic Steatohepatitis” (J Med Chem, 2022).
Calls of active or inactive are those of the source.

Experiments:
[1] = test system: COS7; assay: Agonist activity at human CAR (48 to 324 residues) in Cos7 cells transfected with LBD-Gal4 and pGL435 Gal4 UAS Luc reporter plasmid at 10 uM by reporter gene assay; format: cell-based
[2] = test system: AML12; assay: Agonist activity against PPARalpha/delta (unknown origin) assessed as upregulation of Pdk4 mRNA expression in […] cells at 8 nM incubated for 12 hrs by RT-PCR analysis; format: cell-based; settings: filed as agonist
[3] = test system: Mus musculus; assay: In vivo agonist activity at PPARalpha/delta assessed as upregulation of Mfn2 mRNA expression in C57BL/6Nifdc mouse liver at 10 mg/kg, po for 4 days; format: functional, organism-based; settings: time 4.0 day
[4] = test system: AML12; assay: Agonist activity against PPARalpha/delta (unknown origin) assessed as upregulation of ACADVL mRNA expression in […] cells incubated for 12 hrs by RT-PCR analysis; format: cell-based; settings: filed as agonist, dose 8-200 nM
[5] = test system: Mus musculus; assay: In vivo agonist activity at PPARalpha/delta assessed as upregulation of Acox1 mRNA expression in C57BL/6Nifdc mouse liver at 10 mg/kg, po for 4 days; format: functional, organism-based; settings: time 4.0 day
[6] = test system: Mus musculus; assay: In vivo agonist activity at PPARalpha/delta assessed as upregulation of Pex11a mRNA expression in C57BL/6Nifdc mouse liver at 10 mg/kg, po for 4 days; format: functional, organism-based; settings: time 4.0 day
[7] = test system: Mus musculus; assay: Anti-fibrosis effect in CCl4 induced liver fibrosis C57BL/6JNifdc mouse model assessed as downregulation of Col1a1 expression at 3 to 30 mg/kg, po after 20 hrs by Western blot analysis; format: functional, organism-based; settings: dose 3-30 mg/kg
[8] = test system: Mus musculus; assay: In vivo agonist activity against PPARalpha/delta assessed as upregulation of Cd36 mRNA expression in C57BL/6Nifdc mouse liver at 10 mg/kg, po for 4 days; format: functional, organism-based; settings: time 4.0 day
[9] = test system: AML12; assay: Agonist activity against PPARalpha/delta (unknown origin) assessed as upregulation of Cpt1A mRNA expression in […] cells incubated for 12 hrs by RT-PCR analysis; format: cell-based; settings: filed as agonist, dose 8-200 nM
[10] = test system: Mus musculus; assay: In vivo agonist activity at PPARalpha/delta assessed as upregulation of Gpd1 mRNA expression in C57BL/6Nifdc mouse liver at 10 mg/kg, po for 4 days; format: functional, organism-based; settings: time 4.0 day
[11] = test system: THP-1; assay: Anti-inflammatory activity in human THP1-derived macrophages assessed as decrease in secretion of LPS-induced IL-6 level at 8 to 200 nM for 12 hrs by ELISA kit method; format: functional, cell-based; settings: dose 8-200 nM
[12] = test system: Mus musculus; assay: In vivo agonist activity at PPARalpha/delta assessed as upregulation of Lipa mRNA expression in C57BL/6Nifdc mouse liver at 10 mg/kg, po for 4 days; format: functional, organism-based; settings: time 4.0 day
[13] = test system: Mus musculus; assay: In vivo agonist activity at PPARalpha/delta assessed as upregulation of Akr1c18 mRNA expression in C57BL/6Nifdc mouse liver at 10 mg/kg, po for 4 days; format: functional, organism-based; settings: time 4.0 day
[14] = test system: C2C12; assay: Agonist activity against PPARalpha/delta ( unknown origin) assessed as upregulation of Pdk4 mRNA expression in […] cells incubated for 12 hrs by RT-PCR analysis; format: cell-based; settings: filed as agonist, dose 8-200 nM
[15] = test system: Mus musculus; assay: In vivo agonist activity at PPARalpha/delta assessed as upregulation of Fads2 mRNA expression in C57BL/6Nifdc mouse liver at 10 mg/kg, po for 4 days; format: functional, organism-based; settings: time 4.0 day
[16] = test system: C2C12; assay: Agonist activity against PPARalpha/delta (unknown origin) assessed as upregulation of Angpt14 mRNA expression in […] cells at 8 nM incubated for 12 hrs by RT-PCR analysis; format: cell-based; settings: filed as agonist
[17] = Microsomal stability in human liver microsomes assessed as terminal elimination half life at 1 uM measured upto 60 mins by LC-MS/MS-11 analysis; format: ADME, Microsome
[18] = test system: Mus musculus; assay: In vivo agonist activity against PPARalpha/delta assessed as upregulation of Hilpda-mRNA expression in C57BL/6Nifdc mouse liver at 10 mg/kg, po for 4 days; format: functional, organism-based; settings: time 4.0 day
[19] = test system: C2C12; assay: Agonist activity against PPARalpha/delta (unknown origin) assessed as upregulation of Pdk4 mRNA expression in […] cells at 8 nM incubated for 12 hrs by RT-PCR analysis; format: cell-based; settings: filed as agonist
[20] = test system: Mus musculus; assay: In vivo agonist activity at PPARalpha/delta assessed as upregulation of -Ehhadh mRNA expression in C57BL/6Nifdc mouse liver at 10 mg/kg, po for 4 days; format: functional, organism-based; settings: time 4.0 day
[21] = target: T1, Peroxisome proliferator-activated receptor alpha (Homo sapiens) (UniProt Q07869); settings: filed as agonist, dose 10.0 nM
T1 sequence (whole entry): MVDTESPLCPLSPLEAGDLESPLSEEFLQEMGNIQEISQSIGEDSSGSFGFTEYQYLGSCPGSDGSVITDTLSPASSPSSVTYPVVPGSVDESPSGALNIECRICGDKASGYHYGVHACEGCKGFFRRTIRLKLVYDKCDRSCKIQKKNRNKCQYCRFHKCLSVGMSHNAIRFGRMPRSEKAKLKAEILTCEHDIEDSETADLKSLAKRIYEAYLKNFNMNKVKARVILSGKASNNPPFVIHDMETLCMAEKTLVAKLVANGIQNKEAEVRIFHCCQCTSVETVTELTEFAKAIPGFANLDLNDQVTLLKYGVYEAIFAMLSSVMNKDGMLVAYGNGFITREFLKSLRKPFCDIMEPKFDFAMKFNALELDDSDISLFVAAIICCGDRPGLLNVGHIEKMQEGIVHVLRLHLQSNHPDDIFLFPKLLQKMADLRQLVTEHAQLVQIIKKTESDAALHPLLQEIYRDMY
Description: Agonist activity at PPARalpha (unknown origin) assessed as maximal activation at 10 nM relative to GW7647

[22] = test system: Mus musculus; assay: In vivo agonist activity against PPARalpha/delta assessed as upregulation of Ucp3 mRNA expression in C57BL/6Nifdc mouse liver at 10 mg/kg, po for 4 days; format: functional, organism-based; settings: time 4.0 day
[23] = test system: Mus musculus; assay: In vivo agonist activity against PPARalpha/delta assessed as upregulation of Abca1 mRNA expression in C57BL/6Nifdc mouse skeletal muscle at 10 mg/kg, po for 4 days; format: functional, organism-based; settings: time 4.0 day
[24] = test system: HepG2; assay: Agonist activity against PPARalpha/delta (unknown origin) assessed as upregulation of ACADVL mRNA expression in human HepG2 cells incubated for 12 hrs by RT-PCR analysis; format: cell-based; settings: filed as agonist, dose 8-200 nM
[25] = test system: Mus musculus; assay: In vivo agonist activity at PPARalpha/delta assessed as upregulation of Kit11 mRNA expression in C57BL/6Nifdc mouse liver at 10 mg/kg, po for 4 days; format: functional, organism-based; settings: time 4.0 day
[26] = test system: Mus musculus; assay: Anti-fibrosis effect in CCl4 induced liver fibrosis C57BL/6JNifdc mouse model assessed as decrease in level of hydroxyproline level at 3 to 30 mg/kg, po after 20 hrs […]; format: functional, organism-based; settings: dose 3-30 mg/kg
[27] = test system: Mus musculus; assay: In vivo agonist activity at PPARalpha/delta assessed as upregulation of Hmgcs2 mRNA expression in C57BL/6Nifdc mouse liver at 10 mg/kg, po for 4 days; format: functional, organism-based; settings: time 4.0 day
[28] = test system: AML12; assay: Agonist activity against PPARalpha/delta (unknown origin) assessed as upregulation of Cpt1A mRNA expression in […] cells at 8 nM incubated for 12 hrs by RT-PCR analysis; format: cell-based; settings: filed as agonist
[29] = test system: Mus musculus; assay: In vivo agonist activity against PPARalpha/delta assessed as upregulation of Aldh3a2 mRNA expression in C57BL/6Nifdc mouse liver at 10 mg/kg, po for 4 days; format: functional, organism-based; settings: time 4.0 day

Cc1cc(Cn2ncn(-c3ccc(OC(F)(F)F)cc3)c2=O)cc(C)c1OC(C)(C)C(=O)O
> 2 h: half-life at 1 µM [17]
110%: Emax [21]
inactive: Activity [1]
active: Activity [2] | Activity [3] | Activity [4] Dose-Dependent Effect | Activity [5] | Activity [6] | Activity [7] | Activity [8] | Activity [9] Dose-Dependent Effect | Activity [10] | Activity [11] | Activity [12] | Activity [13] | Activity [14] Dose-Dependent Effect | Activity [15] | Activity [16] | Activity [18] | Activity [19] | Activity [20] | Activity [22] | Activity [23] | Activity [24] Dose-Dependent Effect | Activity [25] | Activity [26] | Activity [27] | Activity [28] | Activity [29]
